Results reported in US20240174690A1, “ANNULATED 2-AMINO-3-CYANO THIOPHENES AND DERIVATIVES FOR THE TREATMENT OF CANCER” (BOEHRINGER INGELHEIM INTERNATIONAL GMBH, priority 2021, published 2024).
Where two headings read alike, the source gives them in different places.

How the values were obtained:
CYP3A4 = CYP3A4 (Homo sapiens (Human), UniProt P08684); assay: Mechanism based inhibition of CYP3A4 assay (MBI 3A4); format: in vitro ADME; conditions: hydroxy-midazolam formation after 30 min vs 0 min preincubation, 25 uM, human liver microsomes
In short: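 Readout is hydroxy-midazolam formed after 30 min preincubation relative to 0 min, measured by LC/MS-MS after acetonitrile quench. Following preincubation, samples diluted 1:10 and incubated 15 min with midazolam substrate.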

GP2D cells = assay: GP2D proliferation assay (120 h) (colorectal cancer, G12D); format: cell-based
In short: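 500 cells/well in DMEM + GlutaMAX + 10% FCS, exposed to a logarithmic compound dose series (DMSO-normalized) for 120 h. Viability read by CellTiter-Glo luminescence as percent of DMSO control, with an untreated T0 read at dosing; IC50 from four-parameter non-linear regression.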

MKN1 cells = assay: MKN1 CTG proliferation assay (120 h) (gastric cancer, wt amplified); format: cell-based; conditions: Homo sapiens
In short: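 MKN1 gastric cancer cells (200–500 per well, RPMI + 10% FCS) given a logarithmic compound dose series and incubated 120 h. Viability by CellTiter-Glo luminescence as percent of DMSO controls. IC50 by four-parameter non-linear regression.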

[1] = MKN-1, assay 3, CTG 120 h, read-out: MKN1 (assay 3) IC50

CYP3A4, sequence (P08684 whole entry): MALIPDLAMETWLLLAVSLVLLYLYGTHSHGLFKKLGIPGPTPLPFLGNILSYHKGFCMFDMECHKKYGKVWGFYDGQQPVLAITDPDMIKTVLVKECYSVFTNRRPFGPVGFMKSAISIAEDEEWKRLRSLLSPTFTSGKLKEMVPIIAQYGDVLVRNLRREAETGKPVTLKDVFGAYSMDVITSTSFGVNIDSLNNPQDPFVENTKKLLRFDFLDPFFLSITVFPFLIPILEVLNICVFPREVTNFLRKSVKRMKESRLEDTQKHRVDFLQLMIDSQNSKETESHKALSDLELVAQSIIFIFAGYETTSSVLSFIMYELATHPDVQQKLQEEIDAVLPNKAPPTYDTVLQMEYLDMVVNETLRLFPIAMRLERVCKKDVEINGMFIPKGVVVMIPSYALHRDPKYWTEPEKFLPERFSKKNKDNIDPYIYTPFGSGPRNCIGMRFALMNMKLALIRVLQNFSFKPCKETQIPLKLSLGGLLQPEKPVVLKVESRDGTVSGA

C[C@H](Oc1cc(N2CCN(C)C3(CC3)C2)nc(-c2onc3c2CCC[C@@]32CCCc3sc(N)c(C#N)c32)n1)[C@@H]1CCCN1C [I-41]
MBI 3A4 (CYP3A4): 68% | IC50 (GP2D cells): 0.008 µM

C[C@H](Oc1cc(N2CC[C@@H](N(C)C)C2)nc(-c2noc3c2CCC[C@@]32CCCc3sc(N)c(C#N)c32)n1)[C@@H]1CCCN1C [II-47]
IC50 (GP2D cells): 0.105 µM

CO[C@@H]1C[C@@H]([C@H](C)Oc2cc(-c3ccn(C)n3)nc(-c3onc4c3CCC[C@@]43CCCc4sc(N)c(C#N)c43)n2)N(C)C1 [I-23]
MBI 3A4 (CYP3A4): 57% | IC50 (GP2D cells): 1.17 µM

C[C@H](Oc1nc(-c2noc3c2CCC[C@@]32CCCc3sc(N)c(C#N)c32)cc(N2C[C@H](C)N[C@@H](C)C2)n1)[C@@H]1CCCN1C [II-46]
MBI 3A4 (CYP3A4): 91%

C[C@H](Oc1cc(N2CCN(C)C3(COC3)C2)nc(-c2noc3c2CCC[C@@]32CCCc3sc(N)c(C#N)c32)n1)[C@@H]1CCCN1C [II-13]
MBI 3A4 (CYP3A4): 70% | IC50 (GP2D cells): 0.009 µM

C[C@H](Oc1cc(-c2ccn(C[C@@H](C)O)n2)nc(-c2onc3c2CCC[C@@]32CCCc3sc(N)c(C#N)c32)n1)[C@@H]1CCCN1C [I-30]
MBI 3A4 (CYP3A4): 77% | IC50 (GP2D cells): 0.811 µM

C[C@H](Oc1cc(N2CCNC3(CCC3)C2)nc(-c2onc3c2CCC[C@@]32CCCc3sc(N)c(C#N)c32)n1)[C@@H]1CCCN1C [I-3]
MBI 3A4 (CYP3A4): 51% | IC50 (GP2D cells): 0.002 µM

C[C@H](Oc1cc(-c2cnsc2)nc(-c2onc3c2CCC[C@@]32CCCc3sc(N)c(C#N)c32)n1)[C@@H]1CCCN1C [I-27]
MBI 3A4 (CYP3A4): 50% | IC50 (MKN1 cells; [1]): 0.396 µM

C[C@H](Oc1cc(N2CCNC3(CCC3)C2)nc(-c2noc3c2CCC[C@@]32CCCc3sc(N)c(C#N)c32)n1)[C@@H]1CCCN1C [II-40]
IC50 (GP2D cells): 0.005 µM

C[C@H](Oc1cc(-n2ccc(C(=O)NC3COC3)n2)nc(-c2noc3c2CCC[C@@]32CCCc3sc(N)c(C#N)c32)n1)[C@@H]1CCCN1C [II-25]
MBI 3A4 (CYP3A4): 77%

CCOC(=O)c1ccn(-c2cc(O[C@@H](C)[C@@H]3CCCN3C)nc(-c3noc4c3CCC[C@@]43CCCc4sc(N)c(C#N)c43)n2)n1 [II-23]
IC50 (MKN1 cells; [1]): 0.172 µM

C[C@H]1CN(C)CCCN1c1cc(N2CC[C@H](N(C)C)C2)nc(-c2noc3c2CCC[C@@]32CCCc3sc(N)c(C#N)c32)n1 [II-16]
IC50 (GP2D cells): 0.056 µM

C[C@H](Oc1cc(-n2ccc(C(=O)N(C)C3COC3)n2)nc(-c2onc3c2CCC[C@@]32CCCc3sc(N)c(C#N)c32)n1)[C@@H]1CCCN1C [I-60]
IC50 (MKN1 cells; [1]): 0.032 µM

C[C@H](Oc1cc(N2C[C@@H](N(C)C)[C@@H](F)C2)nc(-c2noc3c2CCC[C@@]32CCCc3sc(N)c(C#N)c32)n1)[C@@H]1CCCN1C [II-11]
IC50 (GP2D cells): 0.078 µM

C[C@H](Oc1nc(-c2onc3c2CCC[C@@]32CCCc3sc(N)c(C#N)c32)cc(N2CCNC3(CC3)C2)n1)[C@@H]1CCCN1C [I-2]
MBI 3A4 (CYP3A4): 36%

C[C@@H]1CN(c2cc(O[C@@H](C)[C@@H]3C[C@@H](F)CN3C)nc(-c3noc4c3CCC[C@@]43CCCc4sc(N)c(C#N)c43)n2)CC2(CC2)N1 [II-17]
IC50 (GP2D cells): 0.006 µM

[2H]C([2H])([2H])N1C[C@H](F)C[C@H]1[C@H](C)Oc1cc(N2CCN(C)C3(CC3)C2)nc(-c2noc3c2CCC[C@@]32CCCc3sc(N)c(C#N)c32)n1 [II-209]
IC50 (MKN1 cells; [1]): 0.67 µM

C[C@H](Oc1cc(-n2ccc(C(=O)N[C@H]3CCOC3)n2)nc(-c2onc3c2CCC[C@@]32CCCc3sc(N)c(C#N)c32)n1)[C@@H]1CCCN1C [I-57]
IC50 (MKN1 cells; [1]): 0.019 µM

[2H]C([2H])([2H])N1C[C@H](F)C[C@H]1[C@H](C)Oc1cc(N2CCNC3(CC3)C2)nc(-c2noc3c2CCC[C@@]32CCCc3sc(N)c(C#N)c32)n1 [II-208]
IC50 (MKN1 cells; MKN-1, assay 2, CTG 120 h, read-out: MKN1 (assay 2) IC50): 0.451 µM | IC50 (MKN1 cells; [1]): 0.245 µM

C[C@H](Oc1cc(-c2ccn(CC(C)(C)O)n2)nc(-c2onc3c2CCC[C@@]32CCCc3sc(N)c(C#N)c32)n1)[C@@H]1CCCN1C [I-26]
MBI 3A4 (CYP3A4): 71%

COCCNC(=O)c1ccn(-c2cc(O[C@@H](C)[C@@H]3[C@@H](OC)CCN3C)nc(-c3onc4c3CCC[C@@]43CCCc4sc(N)c(C#N)c43)n2)n1 [I-55]
IC50 (MKN1 cells; [1]): 0.039 µM

C[C@H](Oc1cc(-n2ccnc2)nc(-c2onc3c2CCC[C@@]32CCCc3sc(N)c(C#N)c32)n1)[C@@H]1CCCN1C [I-20]
MBI 3A4 (CYP3A4): 85%

C[C@H](Oc1cc(C2CCCO2)nc(-c2noc3c2CCC[C@@]32CCCc3sc(N)c(C#N)c32)n1)[C@@H]1CCCN1C (stereo partly drawn) [II-44]
MBI 3A4 (CYP3A4): 71%

C[C@H](O)Cn1ccc(-c2cc(O[C@@H](C)[C@@H]3CCCN3C)nc(-c3onc4c3CCC[C@@]43CCCc4sc(N)c(C#N)c43)n2)n1 [I-31]
MBI 3A4 (CYP3A4): 67% | IC50 (GP2D cells): 0.588 µM

C[C@H](Oc1cc(-n2ccnn2)nc(-c2onc3c2CCC[C@@]32CCCc3sc(N)c(C#N)c32)n1)[C@@H]1CCCN1C [I-32]
MBI 3A4 (CYP3A4): 41%

CN[C@H]1CCN(c2cc(O[C@@H](C)[C@@H]3CCCN3C)nc(-c3noc4c3CCC[C@@]43CCCc4sc(N)c(C#N)c43)n2)C1 [II-35]
IC50 (GP2D cells): 0.031 µM

C[C@H](Oc1cc(N2CCNC(C)(C)C2)nc(-c2noc3c2CCC[C@@]32CCCc3sc(N)c(C#N)c32)n1)[C@@H]1CCCN1C [II-32]
MBI 3A4 (CYP3A4): 79% | IC50 (GP2D cells): 0.005 µM

C[C@H](Oc1cc(-c2ccn3ncnc3c2)nc(-c2onc3c2CCC[C@@]32CCCc3sc(N)c(C#N)c32)n1)[C@@H]1CCCN1C [I-33]
MBI 3A4 (CYP3A4): 73%

C[C@H](Oc1cc([C@H]2CCN(C)C2)nc(-c2noc3c2CCC[C@@]32CCCc3sc(N)c(C#N)c32)n1)[C@@H]1CCCN1C [II-38]
IC50 (GP2D cells): 0.004 µM

C[C@H](Oc1cc(N2C[C@H](C)N(C)[C@@H](C)C2)nc(-c2onc3c2CCC[C@@]32CCCc3sc(N)c(C#N)c32)n1)[C@@H]1CCCN1C [I-43]
MBI 3A4 (CYP3A4): 64% | IC50 (GP2D cells): 0.143 µM

CO[C@H]1CCN(C)[C@@H]1[C@H](C)Oc1cc(-n2ccc(C(=O)N[C@@H]3CCOC3)n2)nc(-c2onc3c2CCC[C@@]32CCCc3sc(N)c(C#N)c32)n1 [I-53]
IC50 (MKN1 cells; [1]): 0.048 µM

CO[C@H]1CCN(C)[C@@H]1[C@H](C)Oc1cc(-n2ccc(CC(=O)NC(C)C)n2)nc(-c2onc3c2CCC[C@@]32CCCc3sc(N)c(C#N)c32)n1 [I-48]
IC50 (MKN1 cells; [1]): 0.017 µM

C[C@H](Oc1cc(N2CC[C@H](N(C)C)C2)nc(-c2noc3c2CCC[C@@]32CCCc3sc(N)c(C#N)c32)n1)[C@@H]1C[C@@H](F)CN1C [II-15]
MBI 3A4 (CYP3A4): 76% | IC50 (GP2D cells): 0.009 µM

C[C@H](Oc1cc(N2CCNCC2)nc(-c2noc3c2CCC[C@@]32CCCc3sc(N)c(C#N)c32)n1)[C@@H]1CCCN1C [II-45]
IC50 (MKN1 cells; [1]): 1.49 µM

C[C@H](Oc1cc(-c2ccn(C[C@@H]3CCCO3)n2)nc(-c2noc3c2CCC[C@@]32CCCc3sc(N)c(C#N)c32)n1)[C@@H]1CCCN1C [II-43]
MBI 3A4 (CYP3A4): 70%

C[C@H](Oc1nc(-c2onc3c2CCC[C@@]32CCCc3sc(N)c(C#N)c32)cc(N2CCN(C)C3(CC3)C2)n1)[C@@H]1CCCN1C [I-40]
MBI 3A4 (CYP3A4): 37%

Cc1ccc(-c2cc(O[C@@H](C)[C@@H]3CCCN3C)nc(-c3onc4c3CCC[C@@]43CCCc4sc(N)c(C#N)c43)n2)cn1 [I-28]
MBI 3A4 (CYP3A4): 77% | IC50 (MKN1 cells; [1]): 1.28 µM

Cc1nc(-c2cc(O[C@@H](C)[C@@H]3CCCN3C)nc(-c3onc4c3CCC[C@@]43CCCc4sc(N)c(C#N)c43)n2)cs1 [I-24]
MBI 3A4 (CYP3A4): 73%

C[C@H](Oc1cc(-c2ccn([C@H]3CCCOC3)n2)nc(-c2noc3c2CCC[C@@]32CCCc3sc(N)c(C#N)c32)n1)[C@@H]1CCCN1C [II-42]
MBI 3A4 (CYP3A4): 63%

C[C@H](Oc1cc(N2CCC(N(C)C)CC2)nc(-c2noc3c2CCC[C@@]32CCCc3sc(N)c(C#N)c32)n1)[C@@H]1CCCN1C [II-48]
MBI 3A4 (CYP3A4): 84% | IC50 (GP2D cells): 0.065 µM

C[C@H](Oc1cc([C@@H]2CCN(C)C2)nc(-c2noc3c2CCC[C@@]32CCCc3sc(N)c(C#N)c32)n1)[C@@H]1CCCN1C [II-37]
MBI 3A4 (CYP3A4): 81%

C[C@H](Oc1cc(-n2ccc(C(=O)NC3(C)COC3)n2)nc(-c2noc3c2CCC[C@@]32CCCc3sc(N)c(C#N)c32)n1)[C@@H]1CCCN1C [II-26]
MBI 3A4 (CYP3A4): 58%

COCCNC(=O)c1ccn(-c2cc(O[C@@H](C)[C@@H]3CCCN3C)nc(-c3onc4c3CCC[C@@]43CCCc4sc(N)c(C#N)c43)n2)n1 [I-58]
IC50 (MKN1 cells; MKN-1, assay 1, CTG 120 h, read-out: MKN1 (assay 1) IC50): 0.025 µM | IC50 (MKN1 cells; [1]): 0.017 µM

C[C@H](NC(=O)c1ccn(-c2cc(O[C@@H](C)[C@@H]3CCCN3C)nc(-c3onc4c3CCC[C@@]43CCCc4sc(N)c(C#N)c43)n2)n1)c1ccccn1 [I-59]
IC50 (MKN1 cells; [1]): 0.026 µM

C[C@H](Oc1cc(Cl)nc(-c2onc3c2CCC[C@@]32CCCc3sc(N)c(C#N)c32)n1)[C@@H]1CCCN1C [I-1]
IC50 (MKN1 cells; [1]): 1.73 µM

CO[C@H]1CCN(C)[C@@H]1[C@H](C)Oc1cc(-n2ccc(C(=O)N[C@H]3CCOC3)n2)nc(-c2onc3c2CCC[C@@]32CCCc3sc(N)c(C#N)c32)n1 [I-54]
IC50 (MKN1 cells; [1]): 0.026 µM
